In ChEMBL document CHEMBL1156987, “Novel azalides derived from 16-membered macrolides. III. Azalides modified at the C-15 and 4'' positions: Improved antibacterial activities” (Bioorg Med Chem, 2010):
≈ marks a conversion by molar mass, not a printed value.

How the values were obtained:
[1] = system: Staphylococcus aureus; assay: Antibacterial activity against Staphylococcus aureus 209P JC1 after 20 hrs by agar dilution method; assay type: functional; conditions: 209P JC1, 20 h
[2] = system: Streptococcus pneumoniae; assay: Antibacterial activity against Streptococcus pneumoniae DP1 type 1 after 20 hrs by agar dilution method; assay type: functional; conditions: DP1 type1, 20 h
[3] = system: Streptococcus pneumoniae; assay: Antibacterial activity against Streptococcus pneumoniae 5 expressing constitutive ermB methylase after 20 hrs by agar dilution method; assay type: functional; conditions: Streptococcus pneumoniae, 5, 20 h
[4] = system: Streptococcus pneumoniae; assay: Antibacterial activity against Streptococcus pneumoniae 6 expressing constitutive ermB methylase and mefA after 20 hrs by agar dilution method; assay type: functional; conditions: Streptococcus pneumoniae, 6, 20 h
[5] = system: Streptococcus pneumoniae; assay: Antibacterial activity against Streptococcus pneumoniae 7 expressing constitutive ermB methylase after 20 hrs by agar dilution method; assay type: functional; conditions: Streptococcus pneumoniae, 7, 20 h
[6] = system: Streptococcus pneumoniae; assay: Antibacterial activity against Streptococcus pneumoniae 8 expressing inducible ermB methylase after 20 hrs by agar dilution method; assay type: functional; conditions: Streptococcus pneumoniae, 8, 20 h
[7] = system: Streptococcus pneumoniae; assay: Antibacterial activity against Streptococcus pneumoniae 9 expressing inducible ermB methylase after 20 hrs by agar dilution method; assay type: functional; conditions: Streptococcus pneumoniae, 9, 20 h
[8] = system: Streptococcus pneumoniae; assay: Antibacterial activity against Streptococcus pneumoniae 10 expressing mefA efflux pump after 20 hrs by agar dilution method; assay type: functional; conditions: Streptococcus pneumoniae, 10, 20 h
[9] = system: Streptococcus pneumoniae; assay: Antibacterial activity against Streptococcus pneumoniae 11 expressing mefA efflux pump after 20 hrs by agar dilution method; assay type: functional; conditions: Streptococcus pneumoniae, 11, 20 h
[10] = system: Streptococcus pyogenes; assay: Antibacterial activity against Streptococcus pyogenes Cook after 20 hrs by agar dilution method; assay type: functional
[11] = system: Streptococcus pyogenes; assay: Antibacterial activity against Streptococcus pyogenes 2 expressing constitutive ermB methylase after 20 hrs by agar dilution method; assay type: functional; conditions: Streptococcus pyogenes, 2, 20 h
[12] = system: Streptococcus pyogenes; assay: Antibacterial activity against Streptococcus pyogenes 3 expressing mefA efflux pump after 20 hrs by agar dilution method; assay type: functional; conditions: Streptococcus pyogenes, 3, 20 h
[13] = system: Haemophilus influenzae; assay: Antibacterial activity against Haemophilus influenzae 1 after 20 hrs by agar dilution method; assay type: functional; conditions: Haemophilus influenzae, 1, 20 h
[14] = system: Haemophilus influenzae; assay: Antibacterial activity against Haemophilus influenzae 2 after 20 hrs by agar dilution method; assay type: functional; conditions: Haemophilus influenzae, 2, 20 h
[15] = system: Haemophilus influenzae; assay: Antibacterial activity against Haemophilus influenzae 3 after 20 hrs by agar dilution method; assay type: functional; conditions: Haemophilus influenzae, 3, 20 h
[16] = Metabolic stability at human liver S9 fraction assessed as compound remaining after 1 hr; assay type: ADME, subcellular; conditions: read-out: Stability

SMILES	MIC [1] [µg/mL]	MIC [2] [µg/mL]	MIC [3] [µg/mL]	MIC [4] [µg/mL]	MIC [5] [µg/mL]	MIC [6] [µg/mL]	MIC [7] [µg/mL]	MIC [8] [µg/mL]	MIC [9] [µg/mL]	MIC [10] [µg/mL]	MIC [11] [µg/mL]	MIC [12] [µg/mL]	MIC [13] [µg/mL]	MIC [14] [µg/mL]	MIC [15] [µg/mL]	remaining at 1 h [16] [%]
CCNC(=O)O[C@H]1[C@H](C)O[C@@H](O[C@H]2[C@H](N(C)C)[C@@H](O)[C@H](O[C@H]3[C@@H](CC=O)C[C@@H](C)[C@@H](O)CN(C)CCC[C@H](C/C=C/c4cnc5ccccc5c4)OC(=O)C[C@@H](OC(=O)CC)[C@@H]3OC)O[C@@H]2C)C[C@@]1(C)OC(=O)CC	0.25 (≈ 0.236 µM)	0.015 (≈ 0.0142 µM)	16 (≈ 15.1 µM)	16 (≈ 15.1 µM)	16 (≈ 15.1 µM)	0.13 (≈ 0.123 µM)	0.25 (≈ 0.236 µM)	0.015 (≈ 0.0142 µM)	0.015 (≈ 0.0142 µM)	0.06 (≈ 0.0567 µM)	32 (≈ 30.3 µM)	0.13 (≈ 0.123 µM)	8 (≈ 7.57 µM)	16 (≈ 15.1 µM)	16 (≈ 15.1 µM)	79
CCC(=O)O[C@@H]1CC(=O)O[C@@H](C/C=C/c2cnc3ccccc3c2)CCCN(C)C[C@H](O)[C@H](C)C[C@H](CC=O)[C@H](O[C@@H]2O[C@H](C)[C@@H](O[C@H]3C[C@@](C)(OC(=O)CC)[C@@H](OC(=O)NC)[C@H](C)O3)[C@H](N(C)C)[C@H]2O)[C@H]1OC	0.25 (≈ 0.24 µM)	< 0.008	32 (≈ 30.7 µM)	32 (≈ 30.7 µM)	32 (≈ 30.7 µM)	0.25 (≈ 0.24 µM)	0.5 (≈ 0.479 µM)	0.015 (≈ 0.0144 µM)	0.03 (≈ 0.0288 µM)	0.06 (≈ 0.0575 µM)	> 32	0.06 (≈ 0.0575 µM)	4 (≈ 3.83 µM)	8 (≈ 7.67 µM)	8 (≈ 7.67 µM)	78
CCC(=O)O[C@@H]1CC(=O)O[C@@H](C/C=C/c2cnc3ccccc3c2)CCCN(C)C[C@H](O)[C@H](C)C[C@H](CC=O)[C@H](O[C@@H]2O[C@H](C)[C@@H](O[C@H]3C[C@@](C)(O)[C@@H](OC(=O)CC)[C@H](C)O3)[C@H](N(C)C)[C@H]2O)[C@H]1OC	0.5 (≈ 0.507 µM)	0.015 (≈ 0.0152 µM)	128 (≈ 130 µM)	128 (≈ 130 µM)	128 (≈ 130 µM)	8 (≈ 8.11 µM)	8 (≈ 8.11 µM)	0.06 (≈ 0.0608 µM)	0.03 (≈ 0.0304 µM)	0.06 (≈ 0.0608 µM)	> 128	0.5 (≈ 0.507 µM)	2 (≈ 2.03 µM)	8 (≈ 8.11 µM)	8 (≈ 8.11 µM)	28
CCNC(=O)O[C@H]1[C@H](C)O[C@@H](O[C@H]2[C@H](N(C)C)[C@@H](O)[C@H](O[C@H]3[C@@H](CC=O)C[C@@H](C)[C@@H](O)CN(C)CCC[C@H](C/C=C/c4ccc5ccccc5c4)OC(=O)C[C@@H](OC(=O)CC)[C@@H]3OC)O[C@@H]2C)C[C@@]1(C)OC(=O)CC	2 (≈ 1.89 µM)	0.06 (≈ 0.0568 µM)	16 (≈ 15.1 µM)	32 (≈ 30.3 µM)	32 (≈ 30.3 µM)	0.5 (≈ 0.473 µM)	0.5 (≈ 0.473 µM)	0.13 (≈ 0.123 µM)	0.13 (≈ 0.123 µM)	0.25 (≈ 0.237 µM)	16 (≈ 15.1 µM)	0.5 (≈ 0.473 µM)	16 (≈ 15.1 µM)	16 (≈ 15.1 µM)	32 (≈ 30.3 µM)	82
CC[C@H]1OC(=O)[C@H](C)[C@@H](O[C@H]2C[C@@](C)(OC)[C@@H](O)[C@H](C)O2)[C@H](C)[C@@H](O[C@@H]2O[C@H](C)C[C@H](N(C)C)[C@H]2O)[C@](C)(OC)C[C@@H](C)C(=O)[C@H](C)[C@@H](O)[C@]1(C)O [CLARITHROMYCIN]	0.13 (≈ 0.174 µM)	0.03 (≈ 0.0401 µM)	> 128	> 128	> 128	> 128	> 128	1 (≈ 1.34 µM)	1 (≈ 1.34 µM)	0.03 (≈ 0.0401 µM)	> 128	8 (≈ 10.7 µM)	2 (≈ 2.67 µM)	8 (≈ 10.7 µM)	8 (≈ 10.7 µM)	–
CCC(=O)O[C@@H]1CC(=O)O[C@H](C)C/C=C/C=C/[C@H](OC(C)=O)[C@H](C)C[C@H](CC=O)[C@H](O[C@@H]2O[C@H](C)[C@@H](O[C@H]3C[C@@](C)(OC(C)=O)[C@@H](OC(=O)CC)[C@H](C)O3)[C@H](N(C)C)[C@H]2O)[C@H]1OC [MIOCAMYCIN]	0.5 (≈ 0.557 µM)	0.13 (≈ 0.145 µM)	> 128	> 128	> 128	4 (≈ 4.45 µM)	8 (≈ 8.91 µM)	0.25 (≈ 0.278 µM)	0.25 (≈ 0.278 µM)	0.13 (≈ 0.145 µM)	> 128	0.5 (≈ 0.557 µM)	4 (≈ 4.45 µM)	16 (≈ 17.8 µM)	16 (≈ 17.8 µM)	5.1
CCCC(=O)O[C@H]1[C@H](C)O[C@@H](O[C@H]2[C@H](N(C)C)[C@@H](O)[C@H](O[C@H]3[C@@H](CC=O)C[C@@H](C)[C@@H](O)/C=C/C=C/C[C@@H](C)OC(=O)C[C@@H](O)[C@@H]3OC)O[C@@H]2C)C[C@@]1(C)OC(=O)CC [ROKITAMYCIN]	0.13 (≈ 0.157 µM)	0.03 (≈ 0.0362 µM)	> 128	> 128	> 128	1 (≈ 1.21 µM)	1 (≈ 1.21 µM)	0.06 (≈ 0.0725 µM)	0.06 (≈ 0.0725 µM)	0.06 (≈ 0.0725 µM)	> 128	0.13 (≈ 0.157 µM)	2 (≈ 2.42 µM)	8 (≈ 9.66 µM)	8 (≈ 9.66 µM)	–
CC[C@H]1OC(=O)[C@H](C)C(=O)[C@H](C)[C@@H](O[C@@H]2O[C@H](C)C[C@H](N(C)C)[C@H]2O)[C@](C)(OC)C[C@@H](C)C(=O)[C@H](C)[C@H]2N(CCCCn3cnc(-c4cccnc4)c3)C(=O)O[C@]12C [TELITHROMYCIN]	0.03 (≈ 0.0369 µM)	< 0.008	0.5 (≈ 0.616 µM)	1 (≈ 1.23 µM)	1 (≈ 1.23 µM)	0.06 (≈ 0.0739 µM)	0.06 (≈ 0.0739 µM)	0.06 (≈ 0.0739 µM)	0.06 (≈ 0.0739 µM)	< 0.008	16 (≈ 19.7 µM)	0.5 (≈ 0.616 µM)	0.5 (≈ 0.616 µM)	2 (≈ 2.46 µM)	1 (≈ 1.23 µM)	84
